Laboratory results published in ChEMBL document CHEMBL1126446, “Acetylcholine releasing agents as cognition activators. Chemistry and pharmacology of a series of ureas” (1992).

Tests used:
Type in all cases: functional
Rattus norvegicus [1] = species on record: Rattus norvegicus; experiment: Compound was tested for the selective increase in basal stimulated AcCh release in hippocampus at 100 uM
Rattus norvegicus [2] = species on record: Rattus norvegicus; experiment: Compound was tested for the selective increase in basal stimulated AcCh release in striatum; set-up: concentration or dose not given beside the values
Rattus norvegicus [3] = species on record: Rattus norvegicus; experiment: Compound was tested for the selective increase in K+ stimulated AcCh release in striatum; set-up: concentration or dose not given beside the values
Rattus norvegicus [4] = species on record: Rattus norvegicus; experiment: Compound was tested for the selective increase in K+ stimulated AcCh release in cortex at 100 uM
Rattus norvegicus [5] = species on record: Rattus norvegicus; experiment: Compound was tested for the selective increase in K+ stimulated AcCh release in hippocampus at 100 uM
Rattus norvegicus [6] = species on record: Rattus norvegicus; experiment: Compound was tested for the selective increase in basal stimulated AcCh release in cortex at 100 uM
Mus musculus = species on record: Mus musculus; experiment: Compound was tested for the minimum effective dose required for the inhibition of cholinesterase in mouse water maze; conditions: read-out: MED
Rattus norvegicus [7] = species on record: Rattus norvegicus; experiment: Compound was tested for the selective increase in basal stimulated AcCh release in brain region of hippocampus at 100 uM concentration
Rattus norvegicus [8] = species on record: Rattus norvegicus; experiment: Compound was tested for the selective increase in K+ stimulated AcCh release in striatum 10 uM concentration
Rattus norvegicus [9] = species on record: Rattus norvegicus; experiment: Compound was tested for the selective increase in basal stimulated AcCh release in striatum at 10 uM concentration
Rattus norvegicus [10] = species on record: Rattus norvegicus; experiment: Compound was tested for the selective increase in K+ stimulated AcCh release in brain region of hippocampus at 100 uM concentration
Rattus norvegicus [11] = species on record: Rattus norvegicus; experiment: Compound was tested for the selective increase in K+ stimulated AcCh release in brain region of hippocampus at 10 uM concentration
Rattus norvegicus [12] = species on record: Rattus norvegicus; experiment: Compound was tested for the selective increase in basal stimulated AcCh release in cortex at 1 uM concentration
Rattus norvegicus [13] = species on record: Rattus norvegicus; experiment: Compound was tested for the selective increase in K+ stimulated AcCh release in brain region of hippocampus at 1 uM concentration
Rattus norvegicus [14] = species on record: Rattus norvegicus; experiment: Compound was tested for the selective increase in K+ stimulated AcCh release in striatum 50 uM concentration
Rattus norvegicus [15] = species on record: Rattus norvegicus; experiment: Compound was tested for the selective increase in basal stimulated AcCh release in brain region of hippocampus at 10 uM concentration
Rattus norvegicus [16] = species on record: Rattus norvegicus; experiment: Compound was tested for the selective increase in basal stimulated AcCh release in cortex at 100 uM concentration
Rattus norvegicus [17] = species on record: Rattus norvegicus; experiment: Compound was tested for the selective increase in K+ stimulated AcCh release in striatum 100 uM concentration
Rattus norvegicus [18] = species on record: Rattus norvegicus; experiment: Compound was tested for the selective increase in K+ stimulated AcCh release in cortex at 50 uM concentration
Rattus norvegicus [19] = species on record: Rattus norvegicus; experiment: Compound was tested for the selective increase in basal stimulated AcCh release in brain region of hippocampus at 1 uM concentration
Rattus norvegicus [20] = species on record: Rattus norvegicus; experiment: Compound was tested for the selective increase in basal stimulated AcCh release in striatum at 50 uM concentration
Rattus norvegicus [21] = species on record: Rattus norvegicus; experiment: Compound was tested for the selective increase in K+ stimulated AcCh release in cortex at 10 uM concentration
Rattus norvegicus [22] = species on record: Rattus norvegicus; experiment: Compound was tested for the selective increase in basal stimulated AcCh release in striatum at 100 uM concentration
Rattus norvegicus [23] = species on record: Rattus norvegicus; experiment: Compound was tested for the selective increase in basal stimulated AcCh release in striatum at 1 uM concentration
Rattus norvegicus [24] = species on record: Rattus norvegicus; experiment: Compound was tested for the selective increase in K+ stimulated AcCh release in brain region of hippocampus at 50 uM concentration
Rattus norvegicus [25] = species on record: Rattus norvegicus; experiment: Compound was tested for the selective increase in basal stimulated AcCh release in cortex at 50 uM concentration
Rattus norvegicus [26] = species on record: Rattus norvegicus; experiment: Compound was tested for the selective increase in K+ stimulated AcCh release in cortex at 1 uM concentration
Rattus norvegicus [27] = species on record: Rattus norvegicus; experiment: Compound was tested for the selective increase in K+ stimulated AcCh release in cortex at 100 uM concentration
Rattus norvegicus [28] = species on record: Rattus norvegicus; experiment: Compound was tested for the selective increase in basal stimulated AcCh release in cortex at 10 uM concentration
Rattus norvegicus [29] = species on record: Rattus norvegicus; experiment: Compound was tested for the selective increase in K+ stimulated AcCh release in striatum 1 uM concentration
Rattus norvegicus [30] = species on record: Rattus norvegicus; experiment: Compound was tested for the selective increase in basal stimulated AcCh release in brain region of hippocampus at 50 uM concentration

With `O=C(Nc1ccccc1)N(c1ccccc1)c1ccccc1` the “AcCh release (% of control)” value (Rattus norvegicus [1]) was 78%, the Control (Rattus norvegicus [2]) was 259.5% and the Control (Rattus norvegicus [3]) was 224%. The Control (Rattus norvegicus [4]) was 195.7%, the Control (Rattus norvegicus [5]) was 151.3% and the Control (Rattus norvegicus [6]) was 100.3%.
For `NC(=O)N(c1ccccc1)c1ccccc1`, the “AcCh release (% of control)” value (Rattus norvegicus [1]) was 92.2%, the Control (Rattus norvegicus [2]) was 105.9% and the Control (Rattus norvegicus [3]) was 98.9%. It also gave a Control (Rattus norvegicus [4]) of 111.4%, a Control (Rattus norvegicus [5]) of 128.7% and a Control (Rattus norvegicus [6]) of 105.1%.
With `Cc1ccc(N(C(=O)N(c2ccccc2)c2ccccc2)c2ccncc2)cc1` the “AcCh release (% of control)” value (Rattus norvegicus [1]) was 186.4%, the Control (Rattus norvegicus [5]) was 229% and the minimal effective dose (Mus musculus) was greater than 32 mg/kg.
`O=C(N(c1ccccc1)c1ccccc1)N(c1ccccc1)c1ccccc1` was tested, and the “AcCh release (% of control)” value (Rattus norvegicus [1]) was 137.8%, the Control (Rattus norvegicus [2]) was 402.4% and the Control (Rattus norvegicus [3]) was 303.7%. For the same compound, the Control (Rattus norvegicus [4]) was 209.3%, the Control (Rattus norvegicus [5]) was 420.6% and the Control (Rattus norvegicus [6]) was 144.1%.
With `O=C(N(c1ccncc1)c1ccc(Cl)c(Cl)c1)N(C1CCCCC1)C1CCCCC1` the “AcCh release (% of control)” value (Rattus norvegicus [1]) was 335.2% and the Control (Rattus norvegicus [5]) was 233.2%.
In the case of `O=C(N(c1ccccc1)c1ccccc1)N(c1ccncc1)c1cccc(Cl)c1`, the “AcCh release (% of control)” value (Rattus norvegicus [1]) is reported as 103.4% and the Control (Rattus norvegicus [5]) is reported as 9.8%.
With `O=C(N(c1ccccc1)c1ccccc1)N(c1ccncc1)c1ccc(Cl)c(Cl)c1` the “AcCh release (% of control)” value (Rattus norvegicus [1]) was 124.9%, the Control (Rattus norvegicus [5]) was 46.6% and the minimal effective dose (Mus musculus) was 32 mg/kg.
In the case of `Nc1ccncc1N` [AMIFAMPRIDINE], the Control (Rattus norvegicus [7]) is reported as 127.8%, the Control (Rattus norvegicus [8]) is reported as 111.5% and the Control (Rattus norvegicus [9]) is reported as 164.2%. The Control (Rattus norvegicus [10]) was 106.9%, the Control (Rattus norvegicus [11]) was 100.8% and the Control (Rattus norvegicus [12]) was 104.2%. For the same compound, the Control (Rattus norvegicus [13]) was 121.9%, the Control (Rattus norvegicus [14]) was 118.5% and the Control (Rattus norvegicus [15]) was 114%. It also gave a Control (Rattus norvegicus [16]) of 120.8%, a Control (Rattus norvegicus [17]) of 105.9% and a Control (Rattus norvegicus [18]) of 103%. For the same compound, the Control (Rattus norvegicus [19]) was 106.2%, the Control (Rattus norvegicus [20]) was 180.9% and the Control (Rattus norvegicus [21]) was 108.1%. For the same compound, the Control (Rattus norvegicus [22]) was 224.8%, the Control (Rattus norvegicus [23]) was 129.3% and the Control (Rattus norvegicus [24]) was 119.6%. It also gave a Control (Rattus norvegicus [25]) of 116%, a Control (Rattus norvegicus [26]) of 93.5% and a Control (Rattus norvegicus [27]) of 110.8%. For the same compound, the Control (Rattus norvegicus [28]) was 113.8%, the Control (Rattus norvegicus [29]) was 88.8% and the Control (Rattus norvegicus [30]) was 119%.
For `O=C(N(c1ccccc1)c1ccccc1)N(c1ccccc1)c1ccccn1`, the “AcCh release (% of control)” value (Rattus norvegicus [1]) was 113.5%, the Control (Rattus norvegicus [2]) was 232.1% and the Control (Rattus norvegicus [3]) was 266.6%. The Control (Rattus norvegicus [4]) was 158.8%, the Control (Rattus norvegicus [5]) was 318.3% and the Control (Rattus norvegicus [6]) was 130%.
For `NC(=O)Nc1ccccc1` [PHENYLUREA], the “AcCh release (% of control)” value (Rattus norvegicus [1]) was 94.1%, the Control (Rattus norvegicus [2]) was 99.3% and the Control (Rattus norvegicus [3]) was 99.8%. The Control (Rattus norvegicus [4]) was 116.4%, the Control (Rattus norvegicus [5]) was 107.9% and the Control (Rattus norvegicus [6]) was 105.8%.
In the case of `O=C(N(c1ccccc1)c1ccccc1)N(c1ccncc1)c1ccc(Cl)cc1`, the “AcCh release (% of control)” value (Rattus norvegicus [1]) is reported as 159.2% and the Control (Rattus norvegicus [5]) is reported as 231.4%.
With `O=C(N(c1ccccc1)c1ccncc1)N(c1ccc(F)cc1)c1ccc(F)cc1` the “AcCh release (% of control)” value (Rattus norvegicus [1]) was 115.6% and the Control (Rattus norvegicus [5]) was 48.9%.
For `O=C(Nc1ccccc1)Nc1ccccc1` [DIPHENYLUREA], the “AcCh release (% of control)” value (Rattus norvegicus [1]) was 89%, the Control (Rattus norvegicus [2]) was 97.1% and the Control (Rattus norvegicus [3]) was 98.8%. It also gave a Control (Rattus norvegicus [4]) of 125.8%, a Control (Rattus norvegicus [5]) of 138.6% and a Control (Rattus norvegicus [6]) of 101.9%.
For `O=C(N(c1ccccc1)c1ccccc1)N(c1ccccc1)c1ccncc1`, the “AcCh release (% of control)” value (Rattus norvegicus [1]) was 95.4%, the Control (Rattus norvegicus [2]) was 279.8% and the Control (Rattus norvegicus [3]) was 206.5%. The Control (Rattus norvegicus [4]) was 100%, the Control (Rattus norvegicus [5]) was 129.8% and the Control (Rattus norvegicus [6]) was 95.2%.
Work on `Nc1ccncc1` [DALFAMPRIDINE] yielded a Control (Rattus norvegicus [7]) of 128.1%, a Control (Rattus norvegicus [8]) of 105.5% and a Control (Rattus norvegicus [9]) of 131.5%. It also gave a Control (Rattus norvegicus [10]) of 105%, a Control (Rattus norvegicus [11]) of 96.5% and a Control (Rattus norvegicus [12]) of 96.2%. For the same compound, the Control (Rattus norvegicus [13]) was 97.3%, the Control (Rattus norvegicus [15]) was 116.8% and the Control (Rattus norvegicus [16]) was 118%. For the same compound, the Control (Rattus norvegicus [17]) was 131.6%, the Control (Rattus norvegicus [18]) was 99.9% and the Control (Rattus norvegicus [19]) was 112.7%. For the same compound, the Control (Rattus norvegicus [21]) was 104%, the Control (Rattus norvegicus [22]) was 170.9% and the Control (Rattus norvegicus [23]) was 107.6%. It also gave a Control (Rattus norvegicus [25]) of 112.2%, a Control (Rattus norvegicus [26]) of 96.7% and a Control (Rattus norvegicus [27]) of 96.3%. For the same compound, the Control (Rattus norvegicus [28]) was 102.4% and the Control (Rattus norvegicus [29]) was 94%.
